Laboratory results reported in patent US10711005B2, “Compound I and compound II as well as preparation methods therefor and application thereof” (SHENZHEN UNIVERSITY, priority 2015, dated 2020).

Columns and labels:
[1] = tested on: murine melanoma cell line B16f10; test: Anti tumor experiment of T7-EA in vivo (melanoma-bearing mice); design: species or system BALB/c mice; details: T7-EA 10 mg/Kg once every three days for 2 weeks; vs control group, T7 group and EA group (P<0.01), FIG. 5
Source text: The used materials comprise animal and cell strain BALB/c mice, female, 5-6 weeks old, provided by the Guangdong Medical Laboratory Animal Center; and murine melanoma cell line B16f10 purchased from Shanghai ATCC Cell Bank.
24 4-5 weeks old female BALB/c mice are loaded with 5×10^5 tumor cells/each one after 1 weeks of quarantine at SPF level in an animal room. The mice bearing tumors are randomly divided into 75% ethanol control group, T7 group, EA group and T7-EA group, when the diameter of the tumor reaches 5 mm. The corresponding drugs are given to each group with a dosage of T7-EA 10 mg/Kg, T7 5 mg/kg, EA 12.5 mg/kg once every three days for 2 weeks. During the treatment, the tumor growth is observed by measuring the tumor size every three days. The tumor surface area is calculated according to the following formula: S=tab (wherein a represents the long diameter, while b represents the short diameter). The 24 mice are loaded with 5×10^5 tumor cells/each one after 7 days of quarantine at SPF level in an animal room. The mice bearing tumors are randomly divided into 75% ethanol control group, T7 group, EA group and T7-EA group, when the diameter of the tumor reaches 5 mm. The corresponding drugs are given to each group once every three days for 2 weeks, and the tumor size is measured every three days.

[2] = tested on: protein of mammary cancer 4T1 cells; test: Whole-cell antibody detection (serum IgG ELISA); type: in vivo, mice; details: blood collected sixth day after each of 4 immunotherapies, FIG. 12
Description: The protein of mammary cancer 4T1 cells is extracted and the concentration of which is also measured in accordance with the operation manual of the BCA protein quantitative kits. The extracted protein is used as the envelope antigen. The venous blood of mice is collected sixth days after each immunotherapy, and its supernatant is collected for 4 times. The serum antibody is measured in accordance with the operation manual of the ELISA kit.

spleen lymphocytes [3] = test: ELISA detection of cytokines IFN-γ and IL-12 generated by spleen lymphocytes after stimulation of T7-EA-ROR1; type: cell-based, murine; details: final T7-EA concentration 4 μmol/L, T7-EA:ROR1 molar ratio 1:1, FIGS. 10A-10B
Description: The mice are broken the neck to death and soaked in 75% ethanol, and then placed on the super-clean bench for taking the spleen out with a sterile operation. The spleen is grinded in the 35 mm culture dish containing 4-5 ml Mouse1×lymphocyte separating medium. Then separating medium suspended with spleen cells is transferred to the 15 ml centrifuge tube and enclosed with 500 μl RPMI-1640, After that the centrifuge tube is centrifuged at room temperature for 30 minutes at 800 G. Then the middle buffy coat is placed into a centrifuge tube containing 10 ml culture medium for being overthrown and washed. After that, the centrifuge tube is further centrifuged at 250 G for 10 minutes at room temperature. The supernatant is discarded and the cell pellet is dissipated by the culture medium and counted. The spleen leukomonocytes are deposited on the 24-well plate with a final cell density of 1×10^6/ml. T7-EA with corresponding concentrations (0, 0.01, 0.1, 0.5, 1, 2, 4, 8, 16, 20, 24 μmol/L) is added and incubated for 24 hours in the cell culture box. The supernatant is collected on the second day and tested according to the operation manual of the ELISA kit. […] When the T7-EA has a concentration ≤4 μmol/L, better effects can be obtained. Accordingly, 4 μmol/L is the effective concentration of the T7-EA. […]

B16f10 melanoma cells = test: CTL experiment (LDH method), spleen lymphocytes of treated mice against B16f10; type: in vivo; details: effector:target 50:1, 4 hours, after two weeks of administration; vs control, T7 and EA groups (P<0.05), FIG. 6
Description: The activity of cytotoxic T lymphocyte (CTL) is determined by the method of Lactic dehydrogenase (LDH) with CytoTox96Promega kits. The mice in the experimental group are broken the neck to death. The spleen lymphocytes are taken as the effector cells while the B16f10 melanoma cells are used as the target cells. The effector cells and the target cells are mixed up with a ratio of 50:1 and cultured for 4 hours. The specific operation steps can be implemented according to the operation manual, while the kill rate can calculated as follows: the killing rate (%)=(OD value of the experimental group−pontaneous OD value of the effector cells−pontaneous OD value of the target cells)/(Maximum OD value of the target cells−pontaneous OD value of the target cells)×100%. The mice in the experimental group are broken the neck to death after two weeks of administration. The spleen lymphocytes are taken as the effector cells while the B16f10 melanoma cells are used as the target cells. The effector cells and the target cells are spread onto 96-well U-shape plate according to a ratio of 50:1 and cultured together for 4 hours.

spleen lymphocytes [4] = test: ELISA detection of cytokines IFN-γ and IL-12 generated by spleen lymphocytes after stimulation of T7-EA; type: cell-based, mice; details: 24 hours
Description: The mice are broken the neck to death and soaked in 75% ethanol, and then placed on the super-clean bench for taking the spleen out with a sterile operation. The spleen is grinded in the 35 mm culture dish containing 4-5 ml Mouse1×lymphocyte separating medium. Then separating medium suspended with spleen cells is transferred to the 15 ml centrifuge tube and enclosed with 500 μl RPMI-1640, After that the centrifuge tube is centrifuged at room temperature for 30 minutes at 800 G. Then the middle buffy coat is placed into a centrifuge tube containing 10 ml culture medium for being overthrown and washed. After that, the centrifuge tube is further centrifuged at 250 G for 10 minutes at room temperature. The supernatant is discarded and the cell pellet is dissipated by the culture medium and counted. The spleen leukomonocytes are deposited on the 24-well plate with a final cell density of 1×10^6/ml. T7-EA with corresponding concentrations (0, 0.01, 0.1, 0.5, 1, 2, 4, 8, 16, 20, 24 μmol/L) is added and incubated for 24 hours in the cell culture box. The supernatant is collected on the second day and tested according to the operation manual of the ELISA kit. […] When the T7-EA has a concentration ≤4 μmol/L, better effects can be obtained. Accordingly, 4 μmol/L is the effective concentration of the T7-EA.

spleen lymphocytes [5] = test: Lymphocyte proliferation experiment (CCK8); type: cell-based, mice; details: 24 hours; for proliferation of the lymphocytes: CCK8, FIG. 4
Description: The activation and proliferation abilities of T7-EA on the lymphocytes are detected. The mice are broken the neck to death and soaked in 75% ethanol, and then placed on the super-clean bench for taking the spleen out with a sterile operation. The spleen is grinded in the 35 mm culture dish containing 4-5 ml murine lymphocyte separating medium. Then obtained cell suspension is transferred to the 15 ml centrifuge tube in which 500 μl RPMI-1640 is gently added along the tube wall for enclosure. After that the centrifuge tube is centrifuged for 30 minutes at 800 G. Then the centrifuged layer containing the lymphocytes is further centrifuged at 250 G for 10 minutes in a centrifuge tube containing 10 ml culture medium. The supernatant is discarded and the cell pellet is dissipated by the culture medium and counted. The spleen leukomonocytes are deposited on the 96-well plate with a cell density of 2×10^5/each well. T7-EA with corresponding concentrations (0, 0.001, 0.01, 0.1, 1, 2, 4, 8, 16, 20, 24 μmol/L) is added onto the 96-well plate and incubated for 24 hours in the cell culture box of 5% CO2 and saturated humidity at 37° C. The effect of the T7-EA on the proliferation of the lymphocytes is detected by CCK8 after the 24 hours incubation according to the operation manual of the CCK8 kits, and the results are shown in FIG. 4. […] When the T7-EA has a concentration of 4 μmol/L, the relative proliferation rate is about 50%.

spleen lymphocytes [6] = test: ELISA detection of IFN-γ and IL-12 after stimulation of spleen lymphocytes in vitro by T7-EA; type: cell-based, mice; details: 24 hours, FIGS. 3A-3B
Description: The mice are broken the neck to death and soaked in 75% ethanol for 5 minutes, and then placed on the super-clean bench for taking the spleen out with a sterile operation. The spleen is grinded in the 35 mm culture dish containing 4-5 ml murine lymphocyte separating medium. Then obtained cell suspension is transferred to the 15 ml centrifuge tube in which 500 μl RPMI-1640 is gently added along the tube wall for enclosure. After that the centrifuge tube is centrifuged for 30 minutes at 800 G. Then the centrifuged layer containing the lymphocytes is further centrifuged at 250 G for 10 minutes in a centrifuge tube containing 10 ml culture medium. The supernatant is discarded and the cell pellet is dissipated by the culture medium and counted. The spleen leukomonocytes are deposited on the 24-well plate with a cell density of 1×10^6/ml. T7-EA with corresponding concentrations (0, 0.001, 0.01, 0.1, 1, 2, 4, 8, 16, 20, 24 μmol/L) is added into each well and incubated for 24 hours in the cell culture box of 5% CO2 and saturated humidity at 37° C. The supernatant is collected on the second day and tested according to the operation manual of the ELISA kit. The supernatants are collected after stimulating the spleen lymphocytes with T7-EA of different concentrations for 24 hours, and the ELISA test results are shown in FIGS. 3A-3B.

lymphocyte = details: cited from earlier work
[7] = tested on: dendritic cells derived from bone marrow cells; details: in vitro; cited from earlier work
[8] = higher concentration (>4 μmol/L)
[9] = lower concentration (≤4 μmol/L)

Structure (SMILES)	growth of the tumor (tumor surface area) [1]	level of IgG antibody in the mice sera [2]	generation of cytokines IFN-γ and IL-12 by spleen lymphocytes (spleen lymphocytes [3])	immune killing effect (CTL killing rate) (B16f10 melanoma cells)	generation of cytokines IFN-γ and IL-12 by lymphocytes (spleen lymphocytes [4]; 0-24 μmol/L, FIGS. 8A-8B)	effective concentration of the T7-EA (spleen lymphocytes [4]; IFN-γ and IL-12 induction) [µmol/L]	relative proliferation rate (spleen lymphocytes [5]; concentration of 4 μmol/L)	lethal effect on the lymphocytes (spleen lymphocytes [5]; higher concentration (>4 μmol/L), CCK8)	proliferation of the lymphocytes (spleen lymphocytes [5]; [8])	proliferation of the lymphocytes (spleen lymphocytes [5]; [9])	ability for activating lymphocytes (generation of IFN-γ and IL-12) (spleen lymphocytes [6]; [8])	ability for activating lymphocytes (generation of IFN-γ and IL-12) (spleen lymphocytes [6]; [9])	production of inflammatory mediators IFN-γ and IL-12 (lymphocyte)	production of inflammatory mediators TNF-a and IL-12 [7]
C=C(CC)C(=O)c1ccc(OCC(=O)NCc2ccc(Cn3c(O)nc4c(N)nc(OCCOC)nc43)cc2)c(Cl)c1Cl [T7-EA]	significantly inhibited the growth of the tumor	increases gradually with the increase of immunization times	can induce the spleen lymphocytes to generate cytokines IFN-γ and IL-12	stronger immune killing effect on melanoma	can activate the lymphocytes and induce the lymphocytes to generate cytokines IFN-γ and IL-12	4	about 50%	no lethal effect on the lymphocytes	no effect on the proliferation of the lymphocytes	can promote the proliferation of the lymphocytes	decreased ability for activating lymphocytes	stronger ability for activating lymphocytes		
COCCOc1nc(N)c2nc(O)n(Cc3ccc(CN)cc3)c2n1 [T7]													inflammatory mediators, such as IFN-γ and IL-12 can also be produced rapidly	inflammatory mediators, such as TNF-a and IL-12 can be produced rapidly
